Activity calls are given as the source filed them.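 How the source made its calls: active means AC50 no more than tenfold above the top dose tested, or full inhibition at every dose with a flat fit (cut at about 19 µM in these data); inconclusive means flat curve fit with inhibition between 30% and 70%, or poor fit; inactive means AC50 more than tenfold above the top dose tested.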

The assay deals with HMLE_sh_eGFP viability, CellTiter-Glo luminescence, 72 h. Description: viability loss of HMLE_sh_eGFP cells – cell-based, luminescence, counter-screen for HMLE_sh_ECad selective toxicity project, dose response (AID 463074).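 Further: counterscreen control line to flag general toxicity for the HMLE_sh_ECad screen; potency for loss of viability as luminescence drops below DMSO wells.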 A general note: A counterscreen serves to expose hits that act by an unwanted route or on another target.
As to `COC(=O)C1=C(c2cccc(C#N)c2)C[C@@H]2CC[C@H]1N2C(=O)NC1Cc2ccccc2C1`, the AC50 (as a rule, the concentration giving half of the maximal activity seen) is > 19.5 µM (inactive).

Take `Oc1ccc(/C=N/Nc2ncc(Br)cn2)c(O)c1`: the AC50 is 5.8 µM.

Consider `C=CCNc1ncnc2c1ncn2C1OC(CO)C(O)C1O` (stereo not drawn), for which the AC50 is 4.39 µM.

On to `N#CCSc1nc2ccccc2c2nc3ccccc3n12`, for which the AC50 was 5.1 µM.

With `CCC(C)n1c(O)c(/C=N/Nc2ccccc2)c(=O)[nH]c1=S` (stereo not drawn), the AC50 is 3.58 µM.

For `Clc1cccc(CN2CCc3c([nH]c4ccccc34)C2)c1Cl`, the concentration at half-maximal activity (AC50) is 6.15 µM.

For `O=S(=O)(Nc1ccc(-c2nnc(SCc3ccc(Cl)cc3)o2)cc1)c1ccccc1`, the AC50 was 3.6 µM.

As for `CCCCn1c(-c2cccc(C)c2)nc2cc3[nH]c(=O)c(C(C)C)nc3cc21`, the AC50 is 4.64 µM.

Consider `CCOC(=O)C(=O)NNc1ccc(Cl)cc1`, for which the AC50 was 1.37 µM.

`c1ccc(-c2c(-c3ccccc3)n(Cc3ccco3)c3ncnc(NCCCn4ccnc4)c23)cc1`: the AC50 is 6.74 µM.

With `OC(COc1cccc2ccccc12)CN1CCN(c2ccc(Cl)cc2)CC1` (stereo not drawn), the AC50 was 7.09 µM.

Turning to `CC[C@H]1CC2CN3CCc4c([nH]c5c([C@H]6C[C@H]7[C@H](CC)CN(C)[C@@H](Cc8c6[nH]c6ccccc86)[C@H]7C(=O)OC)c(OC)ccc45)C(C(=O)OC)(C2)C13`, the AC50 was 4.25 µM.

As for `Cc1ccccc1C(=O)Nc1ccc(-c2nc3ccc(C(=O)c4ccccc4)cc3[nH]2)cc1`, the AC50 was 1.8 µM.

As to `Cc1ccc(C(=O)CSc2nc(-c3ccccc3)ccc2C#N)cc1`, the AC50 is 2.47 µM.

For `COc1cc(/C=C/C(=O)c2ccc(NS(=O)(=O)c3ccc(C)cc3)cc2)cc(OC)c1O`, the AC50 is 4.11 µM.

On to `O=C(Nc1ccc(Cn2cccn2)cc1)c1ccc(COc2cccc(Br)c2)cc1`, for which the concentration at half-maximal activity (AC50) is 0.302 µM.

Regarding `O=C(Cn1ncc(Cl)c(Cl)c1=O)N1CCN(S(=O)(=O)c2ccc3ccccc3c2)CC1`, the AC50 is 6.11 µM.

On to `Fc1ccc(CSc2nc3ccccc3[nH]2)c2ccccc12`, for which the AC50 was 5.51 µM.

As to `Cc1ccc(C)c(N2CCN(C(=O)c3ccc4c(c3)c(C)c(C)n4C)CC2)c1`, the AC50 was 9.07 µM.

Regarding `O=C(Nc1ccc(C(O)(C(F)(F)F)C(F)(F)F)cc1)c1ccc(Cl)c([N+](=O)[O-])c1`, the AC50 is 7.08 µM.

In the case of `COc1ccc2c(c1)C(=O)[C@H](O)[C@@H](c1ccc(OC)c(Br)c1)O2`, the AC50 is 3.61 µM.

Consider `CCCCCCOc1ccc(/C(C)=N/NC2=NCCN2)cc1`, for which the AC50 was 3.69 µM.

With `Cc1cn(-c2cc(C(=O)Nc3ccc(C)c(NC(=O)C(=O)c4c[nH]c5ccccc45)c3)cc(C(F)(F)F)c2)cn1`, the half-maximal activity concentration (AC50) was 3.5 µM.

For the compound `O=C(CCSc1ccc(Cl)cc1)N1CCN(c2ccc(O)cc2)CC1`, the AC50 is 1.48 µM.

Take `CC(C)C[C@@H](CO)N(Cc1ccccc1)S(=O)(=O)N(Cc1ccccc1)[C@H](CO)CC(C)C`: the AC50 is 7.24 µM.

On to `Cc1cc(N2CCN(c3ccc(C(F)(F)F)cc3[N+](=O)[O-])CC2)c2ccccc2n1`, for which the AC50 was 1.38 µM.

On to `COc1ccccc1OCCN1CSC(=S)N(C)C1`, for which the concentration at half-maximal activity (AC50) was 5.24 µM.

For the compound `Cc1ncc(CN2CCCC(C(=O)Nc3ccc(-c4cccc(F)c4)cc3)C2)s1` (stereo not drawn), the AC50 is 11.7 µM.

`O=C1C=C(c2ccc(F)cc2OCc2ccccc2)C[C@@H](c2ccc(F)cc2)C1`: the AC50 was 2.25 µM.

With `CCOC(=O)c1c(-c2ccc(Cl)cc2)csc1NC(=O)CNCc1ccco1`, the AC50 was 5.2 µM.

`CCc1ccc(Nc2nc(N)nc(CSc3nc4ccccc4s3)n2)cc1`: the AC50 was > 19.5 µM (inactive).

With `CCOC(=O)c1c(NC(=O)/C=C/c2ccc3c(c2)OCO3)sc(C)c1CC`, the AC50 is 1.35 µM.

With `Sc1nnc(-c2ccc(Cl)cc2)n1Cc1ccccc1`, the AC50 is 8.62 µM.

Regarding `COC(=O)c1ccc(COc2ccccc2/C=C(\C#N)C(=O)Nc2c(C)cc(C)cc2C)cc1`, the AC50 is 2.08 µM.

For the compound `Nc1nc(Nc2ccccc2)nc(NC2CCCCC2)c1[N+](=O)[O-]`, the AC50 was 6.81 µM.

`O=c1cc(-c2ccccc2)[nH]n1-c1ccc([N+](=O)[O-])cc1`: the AC50 is 8.23 µM.

With `Cc1ccc(C)c(NC(=O)CSc2nc3nc(-c4cccs4)cc(C(F)(F)F)c3c(=O)[nH]2)c1`, the AC50 is 4.39 µM.

Turning to `Cc1ccc(NC(=O)c2nc(S(=O)(=O)Cc3ccccc3)ncc2Cl)cc1`, the AC50 was 6.39 µM.

For the compound `CCOC(=O)N1C(=O)[C@@](c2ccc(Cl)cc2)(C(C)C)N1C(=O)OCC`, the AC50 was 7.14 µM.

Turning to `CCOC(=O)c1c(NC(=O)C2COc3ccccc3O2)sc2c1CC(C)(C)NC2(C)C` (stereo not drawn), the AC50 was 9.86 µM.

In the case of `CC(C)(C)c1ccc(Oc2ccc(NC(=O)c3cccs3)cn2)cc1`, the AC50 was 2.88 µM.

Take `COc1ccc(-n2cc(-c3ccccc3)c3c(N4CCOCC4)ncnc32)cc1`: the AC50 was 6.91 µM.

Take `COc1ccc(C(=O)/C=C/c2ccc(N3CCCCC3)c([N+](=O)[O-])c2)c(OC)c1`: the AC50 is 6.6 µM.

With `O=C1[C@H]2CCCC[C@H]2C(=O)N1CCCCN1CCN(c2nsc3ccccc23)CC1`, the concentration at half-maximal activity (AC50) was 4.51 µM.

For `CC(=O)c1ccc(-c2cc([C@H]3[C@H]4C=CC[C@@H](C)[C@@H]4C(=O)N3Cc3ccccc3)ccc2F)cc1`, the AC50 was 6.87 µM.

Regarding `CC(=O)Nc1ccc(C2CC(c3ccc(Cl)cc3)=NN2c2ccccc2)cc1` (stereo not drawn), the AC50 was 2.13 µM.

Turning to `O=C(Nc1cccc(Cl)c1N1CCCCC1)c1ccc2c(c1)OCCO2`, the AC50 is 11.4 µM.

As to `Cc1ccc(N2C(=O)C3C4C=CC(CC4)C3C2=O)cc1Br` (stereo not drawn), the AC50 was 1.38 µM.

In the case of `COc1ccc(C(=O)C2CCCN(C3CSCCSC3)C2)c(OC)c1` (stereo not drawn), the AC50 was 4.74 µM.

Turning to `O=C(/C=C/c1ccccc1[N+](=O)[O-])c1ccccc1Br`, the AC50 is 3.64 µM.

As to `O=S(=O)(c1cnc(Cl)c(Br)c1)N1CCc2ccccc21`, the AC50 is 6.77 µM.

For `O=S(=O)(c1ccc(Cl)cc1)N1CCN(Cc2ccc(O)c3ncccc23)CC1`, the AC50 was 6.21 µM.

For the compound `Cc1ccc(NC(=S)Nc2cccc3cnccc23)cc1C`, the AC50 is > 19.5 µM (inactive).

Consider `NS(=O)(=O)c1ccc(NC(=O)COC(=O)c2c3c(nc4ccccc24)/C(=C\c2ccc4c(c2)OCO4)CCC3)cc1`, for which the AC50 was 6.87 µM.

For `CCCCn1c(SCC(N)=O)nc2sc3c(c2c1=O)CCC3`, the AC50 is > 19.5 µM (inactive).

In the case of `Cc1nn(CCc2nn[nH]n2)c2nc(-c3ccc(C4CCCCC4)cc3)cc(C(F)(F)F)c12`, the AC50 is 2.7 µM.

In the case of `c1ccc(CN2CCC(Nc3nc(-c4cccs4)nc4ccccc34)CC2)cc1`, the AC50 is 6.8 µM.

In the case of `Brc1cccc(OCCN2CCc3ccccc3C2)c1`, the AC50 is > 19.5 µM (inactive).

For the compound `COc1ccc(CNC(=O)c2c(N)n(CCCN3CCOCC3)c3nc4ccccc4nc23)cc1`, the AC50 is 6.67 µM.

Take `COc1cc(Nc2nc(-c3ccccc3)c3cc(C)ccc3n2)cc(OC)c1OC`: the AC50 was 5.17 µM.

As to `COc1ccc(-c2sc3cc4c(cc3c2C#CC2(N)CCCCC2)OCO4)cc1`, the AC50 was 1.91 µM.

As for `Cc1ccc(NC2=NCC(Cc3ccc(Br)cc3)S2)cc1` (stereo not drawn), the AC50 was 6.73 µM.

On to `Cc1cc(C)c(NC(=O)CSCc2c(C)noc2C)c(C)c1`, for which the AC50 is > 19.5 µM (inactive).

Turning to `c1ccc(-c2nnc3sc(CN4CCc5ccccc54)cn23)cc1`, the AC50 is 3.51 µM.

For `Cc1ccccc1N=C1SC(CC(=O)Nc2ccc3ccccc3c2)C(=O)N1Cc1ccccn1` (stereo not drawn), the AC50 was 6.02 µM.

As to `Cc1onc(-c2c(Cl)cccc2Cl)c1C(=O)NNc1ccccc1`, the AC50 is 2.09 µM.

Regarding `Cc1ccc(-c2cc(-c3ccccc3C)[nH]n2)c(O)c1`, the AC50 is 8.64 µM.

`NC(=O)c1ccc(NC(=O)COC(=O)c2c3c(nc4ccccc24)/C(=C\c2cccs2)CCC3)cc1`: the concentration at half-maximal activity (AC50) is 10.3 µM.

With `COCCCn1c(SCc2cccc(C(F)(F)F)c2)nc2cc(OC)c(OC)cc2c1=N`, the AC50 is 4.75 µM.

`Cc1c(-c2cccc(Cl)c2)nc2ccccc2c1C(=O)OC/C(O)=C(\C#N)c1nc2ccccc2[nH]1`: the AC50 was 3.12 µM.

For the compound `COc1ccc(/C=N/N(Cc2ccccc2)c2ccccc2)cc1O`, the AC50 is 6.77 µM.

For the compound `c1ccc(C[C@H]2CNCCN2CCCCC2CCCCC2)cc1`, the AC50 was 6.83 µM.

For the compound `COc1ccc(NS(=O)(=O)c2ccc3nc(COc4cccc5ccccc45)[nH]c3c2)cc1`, the AC50 was 4.75 µM.

For `CC1(C)Cc2c(c(N3CCOCC3)nc3sc4c(NN)ncnc4c23)CS1`, the AC50 is 11.4 µM.

For the compound `CCc1ccc(-c2cc(C(=O)N/N=C/c3c[nH]c4ccccc34)[nH]n2)cc1`, the AC50 is 12.6 µM.

On to `CCOC(=O)c1c(CSc2ccc(C)cc2)oc2ccc(O)cc12`, for which the AC50 is 5.05 µM.

`CCOC(=O)c1c(NC(C)=O)sc2c1CCC(C=O)=C2Sc1ccccc1`: the AC50 was 3.63 µM.

As to `Cc1cccc(-n2cc(-c3ccccc3)c3c(N4CCOCC4)ncnc32)c1`, the AC50 was 4.59 µM.

Take `O=C(Nc1ccc2c(c1)OCO2)c1cc(-c2ccc(O)cc2)on1`: the AC50 was 1.33 µM.

On to `COC(=O)c1cccc(Nc2cc(C)nc(-c3ccccc3O)n2)c1`, for which the AC50 was 8.82 µM.

Regarding `Cc1cc(S(=O)(=O)c2ccc([N+](=O)[O-])cn2)ccc1Br`, the AC50 was 3.99 µM.

In the case of `CC1=NOC(=O)/C1=C\c1ccc(-c2cc(Cl)ccc2Cl)o1`, the AC50 is 1.06 µM.

`COc1ccc(-c2csc3nc(-c4ccccc4F)oc(=O)c23)cc1OC`: the AC50 is 3.86 µM.

Consider `CCc1c(C)sc(NC(=O)/C=C/c2ccc3c(c2)OCO3)c1C(=O)OC`, for which the AC50 is 0.776 µM.

Take `O=C(Nc1ccc(OC(F)F)c(Cl)c1)Nc1ccc2c(c1)OCO2`: the AC50 is 3.14 µM.

As for `C=CCn1c(SCC(=O)c2[nH]c(C)c(C(=O)OCC)c2C)nc2scc(-c3ccc(OC)c(OC)c3)c2c1=O`, the AC50 was 3.99 µM.

Turning to `COc1cccc(-c2ccc(C#N)c(OC(=O)c3c(Cl)cccc3Cl)n2)c1`, the AC50 was 4.45 µM.

Consider `CC(C)(C)c1cc(C=C(C#N)C#N)cc(C(C)(C)C)c1O`, for which the AC50 was 3.08 µM.

For `O=C(Nc1ccc(CN2CCOCC2)cc1)c1ccc(-c2ccc(Cl)cc2Cl)o1`, the AC50 was 7.06 µM.

Turning to `O=C(N/N=C/c1ccc(O)cc1O)/C(=C/c1ccccc1)CCO`, the AC50 was 7.22 µM.

For the compound `O=C(Nc1cccc(S(=O)(=O)Nc2ccc(Cl)cc2)c1)c1cc2c(s1)CCCC2`, the AC50 was 2.79 µM.

With `COc1ccc(-c2sc3cc(OC)c(OC)cc3c2-c2ccc(O)cc2)cc1`, the AC50 was 3.7 µM.

As to `C=CCn1c(O)c(C2=c3ccccc3=NC2=O)sc1=Nc1ccc(O)cc1`, the AC50 was 6.76 µM.

Source of the values: PubChem BioAssay AID463074 (Broad Institute, 2010).
